The values that follow come from ChEMBL document CHEMBL1938310, “Discovery of novel antitubercular 1,5-dimethyl-2-phenyl-4-([5-(arylamino)-1,3,4-oxadiazol-2-yl]methylamino)-1,2-dihydro-3H-pyrazol-3-one analogues” (Bioorg Med Chem Lett, 2012).

The MIC is the smallest concentration in the dilution series that meets the test's criterion for growth inhibition. High values mean weaker potency, low ones greater potency.

Each structure is given as a SMILES string. In brackets after ≈: the same amount, converted by molar mass.

The first test concerns Mycobacterium tuberculosis. Briefly: Antimycobacterial activity against isoniazid-resistant Mycobacterium tuberculosis by two fold agar dilution method. In kind it is functional. A general note: Agar dilution tests growth on a series of plates holding different concentrations.
The compound `Cc1c(NCc2nnc(Nc3ccc(F)c(Cl)c3)o2)c(=O)n(-c2ccccc2)n1C` registered an MIC of 10 µg/mL (≈ 23.3 µM).

Turning to `Cc1c(NCc2nnc(Nc3ccc(F)cc3)o2)c(=O)n(-c2ccccc2)n1C`, it took 3.12 µg/mL (≈ 7.91 µM) to inhibit growth (MIC). Take `Cc1c(NCc2nnc(Nc3ccc(Cl)cc3)o2)c(=O)n(-c2ccccc2)n1C`: the MIC stood at 10 µg/mL (≈ 24.3 µM).

In turn, `Cc1c(NCc2nnc(Nc3ccc(Br)cc3)o2)c(=O)n(-c2ccccc2)n1C` had an MIC of 12.5 µg/mL (≈ 27.5 µM). Consider `Cc1c(NCc2nnc(Nc3ccccc3Cl)o2)c(=O)n(-c2ccccc2)n1C`, for which the MIC is > 12.5 µg/mL. Regarding `Cc1c(Cl)cccc1Nc1nnc(CNc2c(C)n(C)n(-c3ccccc3)c2=O)o1`, the MIC is > 12.5 µg/mL. `Cc1c(NCc2nnc(Nc3ccc([N+](=O)[O-])cc3)o2)c(=O)n(-c2ccccc2)n1C` registered an MIC of 6.25 µg/mL (≈ 14.8 µM). On the same count and under the same terms, the result for `Cc1ccc(Nc2nnc(CNc3c(C)n(C)n(-c4ccccc4)c3=O)o2)cc1` reads > 12.5 µg/mL. `COc1ccc(Nc2nnc(CNc3c(C)n(C)n(-c4ccccc4)c3=O)o2)cc1`: the MIC is > 12.5 µg/mL. With `Cc1ccc(Nc2nnc(CNc3c(C)n(C)n(-c4ccccc4)c3=O)o2)c(C)c1`, the MIC was > 12.5 µg/mL. `Cc1cccc(C)c1Nc1nnc(CNc2c(C)n(C)n(-c3ccccc3)c2=O)o1`: the minimum inhibitory concentration (MIC) is > 12.5 µg/mL. `Cc1c(NCc2nnc(Nc3ccc(O)cc3)o2)c(=O)n(-c2ccccc2)n1C` gave an MIC of 12.5 µg/mL (≈ 31.9 µM). In the case of `Cc1c(NCc2nnc(Nc3ccc(S(N)(=O)=O)cc3)o2)c(=O)n(-c2ccccc2)n1C`, the MIC was 12.5 µg/mL (≈ 27.4 µM). In the case of `Cc1c(NCc2nnc(Nc3ccccc3)o2)c(=O)n(-c2ccccc2)n1C`, the MIC is > 12.5 µg/mL.

In turn, `NNC(=O)c1ccncc1` [ISONIAZID] yielded an MIC of 12.5 µg/mL (≈ 91.1 µM).

For another test, the system named is Mycobacterium tuberculosis. The test is described as follows: Ratio of MIC for isoniazid-resistant Mycobacterium tuberculosis to MIC for Mycobacterium tuberculosis H37Rv. In kind it is functional.
Consider `Cc1c(NCc2nnc(Nc3ccc(F)cc3)o2)c(=O)n(-c2ccccc2)n1C`, for which the Ratio is 4.
